Test system: Candida albicans
Experiment: Binding affinity to Candida albicans lumazine synthase

Row | Ka | SMILES
1 | 758000 M⁻¹ | O=c1[nH]c(=O)c2[nH]c(=O)n(C[C@H](O)[C@H](O)[C@H](O)CO)c2[nH]1
2 | 1.63e+06 M⁻¹ | O=c1[nH]c(=O)c2c([nH]1)n(C[C@H](O)[C@H](O)[C@H](O)CO)c(=O)c(=O)n2CCCCOP(=O)(O)O
3 | 3.53e+06 M⁻¹ | O=c1[nH]c(=O)c2c([nH]1)n(C[C@H](O)[C@H](O)[C@H](O)CO)c(=O)n2CCCOP(=O)(O)O
4 | 6.61e+06 M⁻¹ | O=c1[nH]c(Cl)c(CCCCOP(=O)(O)O)c(=O)[nH]1
